Results taken from US9877998B2, “Uses of hypoxia-inducible factor inhibitors” (OncoImmune, Inc., priority 2009, dated 2018).

How the values were obtained:
[1] = system: lymphoma CSC (c-Kit+Sca-1+ TGB lymphoma cells); experiment: Colony formation (CFU) assay of TGB lymphoma cells in 1% methylcellulose medium; format: cell-based, mouse; conditions: for effect on lymphoma CFU (colony number): cultured lymphoma cells treated 24 hours with pharmacologically effective doses (echinomycin: low doses), drugs washed away
Method: FIG. 2. HIF addiction of CSC. a. Selective ablation of lymphoma CFU by echinomycin. The cultured lymphoma cells were treated with given doses of pharmacologically effective drugs in medium for 24 hours. After washing away the drugs, the cells were cultured in 1% methylcellulose-containing medium, and the colony number was counted after 6 to 7 days. Data shown are means and SD of triplicates and have been confirmed by 3 independent experiments. b. A reporter system for HIF activity in the TGB lymphoma. Diagram of lentiviral construct for HIF activity is shown on the top. Pause, a sequence fragment to eliminate the effect of lentiviral promoter; HRE, Hypoxia response element (SEQ ID NO: 20); TATA, TATA sequence (TATATAAT) (top). Lower left, validation of the reporter. HEK293 cells were transiently transfected with cDNA encoding mutant HIF1α (P402A/P577A) or vector control in conjunction with either HRE-driven EGFP reporter, HRE mutant reporter (SEQ ID NO: 21). The cells were analyzed by flow cytometry to detect EGFP expression 36 hours after transduction. […] IC50 of echinomycin in the inhibition of HIF1α activity in lymphoma CSC. The lymphoma cells transfected with the HRE reporter system were cultured in the presence of different concentration of echinomycin for 12 hours, the % of c-Kit^+GFP^+ cells was normalized against the untreated group (1.13%, which was defined as 100%). […] Selectivity of HIF inhibitor for CFU of lymphoma CSC over the CFU from hematopoietic progenitor cells. c-Kit^+Sca-1^+ cells from either TGB or normal bone marrow were treated with given concentration of echinomycin overnight prior to plating in the medium containing 1% methylcellulose for CFU assay. The data shown were % of untreated controls, and were means+/−S.D. of triplicates. e. Therapeutic effect of a low dose of echinomycin. Cultured lymphoma cells (1×10^6/mouse) were injected i.p. into immune competent B10.BR mice. Fourteen days later, 10 μg/Kg/Injection of echimomycin was injected at a two-day interval for a total of 5 times. Control mice received vehicle only. The mice were observed daily for survival.
FIG. 6. HIF works in concert with Notch pathway to maintain CSC. a. Inhibition of colony-forming activity of CSC. The cultured lymphoma cells were treated with given doses of L685, 458 for 24 hours. After that, the cells were cultured in 1% methylcellulose-containing medium, and the colony number was counted after 6 to 7 days. Data shown are means+/−SD of triplicate samples and are representative of those of at least 3 independent experiments. b. Enhanced Notch activity in CSC, as indicated by the levels of Hes1 transcripts. The lymphoma cells from spleen with tumor in TGB transgenic mouse were sorted into c-kit^+Sca-1^+ or c-kit^−Sca-1^− fractions. The expressions of Hes1αnd mRNA in these two fractions were measured by real time PCR. c. Inhibition of Notch activity by 3 distinct HIF inhibitors. Cultured TGB lymphoma cells were stained with APC conjugated anti-c-Kit-antibody and enriched twice using anti-APC coated MACS beads according to manufacturer's protocol (Militenyi Biotec). The c-kit positive cells-enriched samples (60.4% c-Kit^+ cells) were treated with inhibitors of HIF for 16 hours. The mRNA from the treated cells were extracted for quantitation by real-time PCR. Data shown are means+/−SD of triplicates and represent those from at least 3 independent experiments. 2ME2, 2-methoxyestradiol; GA, geldamycin. d-g. […] A truncated Notch gene with potent dominant negative activity in inhibiting the expression of Notch target gene Hes. […] The right panel show dominant inhibition of Hes expression. After three consecutive transductions by either vector control or the dRdA1-4dOP mutant, the RNA were isolated and the transcripts of Hes measured by quantitative PCR. Data shown are means of triplicates and have been reproduced by two independent experiments. e. Notch I-C deltaRAM abrogates the c-Kit^+Sca-1^+ subset. […]

[2] = system: lymphoma CSC (c-Kit+Sca-1+ TGB lymphoma cells); experiment: as above; format: cell-based, mouse; conditions: first and second rounds of sorted cells, 1000/well, drug 24 hours, colonies counted after 5 days
TGB lymphoma = experiment: In vivo tumorigenicity / therapy of transplanted TGB lymphoma in B10.BR mice (survival); conditions: 9×10^5 lymphoma cells i.p., 5 injections at two day interval from day 8; less efficacy than echinomycin (FIG. 12b)
Method: FIG. 2. HIF addiction of CSC. a. Selective ablation of lymphoma CFU by echinomycin. The cultured lymphoma cells were treated with given doses of pharmacologically effective drugs in medium for 24 hours. After washing away the drugs, the cells were cultured in 1% methylcellulose-containing medium, and the colony number was counted after 6 to 7 days. Data shown are means and SD of triplicates and have been confirmed by 3 independent experiments. b. A reporter system for HIF activity in the TGB lymphoma. Diagram of lentiviral construct for HIF activity is shown on the top. Pause, a sequence fragment to eliminate the effect of lentiviral promoter; HRE, Hypoxia response element (SEQ ID NO: 20); TATA, TATA sequence (TATATAAT) (top). Lower left, validation of the reporter. HEK293 cells were transiently transfected with cDNA encoding mutant HIF1α (P402A/P577A) or vector control in conjunction with either HRE-driven EGFP reporter, HRE mutant reporter (SEQ ID NO: 21). The cells were analyzed by flow cytometry to detect EGFP expression 36 hours after transduction. […] IC50 of echinomycin in the inhibition of HIF1α activity in lymphoma CSC. […]
Given numbers of total tumor cells or sorted subsets were injected into either immune competent B10.BR mice or RAG-2^−/−BALB/c mice. […] The therapeutic effects were analyzed by Kaplan Meier survival analysis.

[3] = colonies counted after 6 to 7 days

| Structure (SMILES) | effect on lymphoma CFU (colony number) [1, 3] | further results |
| --- | --- | --- |
| OCC1OC(O)CC(O)C1O (stereo not shown) [2-DG] | no effect | – |
| COc1cc2c(cc1O)CC[C@@H]1[C@@H]2CC[C@]2(C)[C@@H](O)CC[C@@H]12 [2-methoxyestradiol] | – | inhibition of colony formation of sorted c-Kit+Sca-1+ tumor cells [2]: Inhibition; CFU of CSC ([1]; less efficacy than echinomycin (FIG. 12a)): reduced; tumor initiation of CSC (TGB lymphoma): reduced |
| COc1ccc2c(c1)c(C1=C(c3c[nH]c4ccccc34)C(=O)NC1=O)cn2CCCN(C)C [Gö6983] | no effect | – |
| O=S(=O)(NCCNC/C=C/c1ccc(Br)cc1)c1cccc2cnccc12 [H89] | no effect | – |
| CC(C)C[C@H](NC(=O)[C@H](Cc1ccccc1)C[C@@H](O)[C@H](Cc1ccccc1)NC(=O)OC(C)(C)C)C(=O)N[C@@H](Cc1ccccc1)C(N)=O [L-685, 458] | – | colony forming activity of lymphoma CSC ([1]; given doses for 24 hours, colonies counted after 6 to 7 days): potently blocked |
| O=c1cc(N2CCOCC2)oc2c(-c3ccccc3)cccc12 [Ly294002] | no effect | – |
| COc1cccc(-c2cc(=O)c3ccccc3o2)c1N [PD98059] | no effect | – |
| S=C(S)N1CCCC1 [PDTC] | no effect | – |
| CO[C@H]1C[C@@H]2CC[C@@H](C)[C@@](O)(O2)C(=O)C(=O)N2CCCC[C@H]2C(=O)O[C@H]([C@H](C)C[C@@H]2CC[C@@H](O)[C@H](OC)C2)CC(=O)[C@H](C)/C=C(\C)[C@@H](O)[C@@H](OC)C(=O)[C@H](C)C[C@H](C)/C=C/C=C/C=C/1C [Rapamycin] | no effect | – |
| C[S+]([O-])c1ccc(-c2nc(-c3ccncc3)c(-c3ccc(F)cc3)[nH]2)cc1 (stereo not shown) [SB203580] | no effect | – |
| Cn1cc(C2=C(c3ccc(Cl)cc3Cl)C(=O)NC2=O)c2ccccc21 [SB216763] | no effect | – |
